Columns and labels:
[1] = test system: lung cancer KPL cells; assay: White light microscope observation of lung cancer KPL cells after 48 h drug incubation (Examples 1-3); format: cell-based
[2] = test system: colon cancer MC38 cell; assay: In vivo anti-tumor efficacy in subcutaneous allograft tumor model of colon cancer MC38 cell in C57BL/6 mice; set-up: species or system mouse; conditions: PD-L1 antibody 5 mg/kg i.p. BIW
Source text: Mice: Female C57BL/6 mice aged 6-8 weeks were purchased from Shanghai Slack Laboratory Animal Co., Ltd. After the animals arrived, they were raised for acclimatization in the assay environment before the assay. The animals were raised in cages (5 animals per cage) with IVC (independent air supply system) in a SPF animal room. All the cages, padding and drinking water were sterilized before use. All the experimenters wore protective clothing and latex gloves when operating in the animal room. The animal information card for each cage indicated the number, sex, strain, receiving date, administration plan, assay number, group and assay start date of the animals in the cage. […]
Colorectal cancer cells MC38 (from Nanjing Kebai Biotechnology Co., Ltd., article number: CBP60825) were maintained and passaged by InxMed (Nanjing) Co., Ltd. The cells were cultured in monolayer in vitro, and the culture conditions were DMEM medium with 10% fetal bovine serum, 37° C. and 5% CO2 incubator. […] When the cells were in exponential growth period and the saturation reached 80% to 90%, the cells were collected, counted and inoculated. […]
The diameter of a tumor was measured with a vernier caliper 3 times a week. […]
Referring to the tumor volume on the first day after grouping, the tumor growth inhibition rate TGI (%) was calculated according to the following formula. […]

[3] = test system: Calreticulin; assay: Calreticulin release and exposure in HCC827 cells after FAK silencing combined with AZD9291; format: cell-based; conditions: FAK siRNA 50 nM, then 0.3 nM AZD9291, 48 hours
Protocol: In an in vitro assay, siRNA technology was used to reduce the expression level of FAK, which was combined with AZD9291 for 48 hours; a flow cytometer was used to detect the expression of Calreticulin, the main target of ICD.
(§1) Assay antibodies: Recombinant Alexa Fluor® 647 Anti-Calreticulin antibody (Abcam, ab196159), Annexin V apoptosis detection kit (Invitrogen, A35110).
HCC827 cells were transfected with control siRNA or FAK siRNA at a final concentration of 50 nM, respectively. After 24 hours of transfection, 0.3 nM AZD9291 was added and the cells were treated for 48 hours. The Calreticulin antibody was used for fluorescent staining, and the staining results were analyzed by a flow cytometer.

[4] = test system: lung cancer cells HCC827; assay: Apoptosis of HCC827 cells after FAK silencing combined with AZD9291 (Annexin V, flow cytometer); format: cell-based; conditions: FAK siRNA 50 nM, then 0.3 nM AZD9291, 48 hours
Protocol: In an in vitro assay, siRNA technology was used to reduce the expression level of FAK, which was combined with AZD9291 for 48 hours; a flow cytometer was used to detect the apoptosis in control and FAK-silenced cells.
as §1
HCC827 cells were transfected with control siRNA or FAK siRNA at a final concentration of 50 nM, respectively. After 24 hours of transfection, 0.3 nM AZD9291 was added and the cells were treated for 48 hours. The cells were stained using the Annexin V kit and detected using a flow cytometer. The values of early and late apoptosis of the cells were compared with those of the DMSO control group, and Graphpad 8.0 was used for graphing.

[5] = Example 2, IN10018 10 μM, Almonertinib 4.7 μM, or both
[6] = Example 1, IN10018 10 μM, AZD9291 10 μM, or both
[7] = Example 3, IN10018 10 μM, Alflutinib 4.7 μM, or both

| Structure (SMILES) | condition of cells under microscope [1, 5] | condition of cells under microscope [1, 6] | condition of cells under microscope [1, 7] | TGI ([2]; day 14, AZD9291 20, IN10018 25 mg/kg p.o. QD) [%] | Tumor volume on day 14 ([2]; day 14 after group administration, AZD9291 20, IN10018 25 mg/kg p.o. QD, mean ± standard error of the mean) [mm^3] | release and exposure of Calreticulin after FAK silencing [3] | late apoptosis in the FAK silencing group compared with the control group [4] |
| --- | --- | --- | --- | --- | --- | --- | --- |
| C=CC(=O)Nc1cc(Nc2nccc(-c3cn(C4CC4)c4ccccc34)n2)c(OC)cc1N(C)CCN(C)C [Almonertinib] | poor condition |  |  |  |  |  |  |
| COc1cc(C(=O)NC2CCN(C)CC2)c(F)cc1Nc1ncc(C(F)(F)F)c(Oc2cccc3c2C(=O)N(C)C3)n1 [IN10018] | better condition | better condition | better condition |  |  |  |  |
| C=CC(=O)Nc1cc(Nc2nccc(-c3cn(C)c4ccccc34)n2)c(OC)cc1N(C)CCN(C)C [AZD9291, Osimertinib] |  | poor condition |  | 24.4 | 1518.1±728.8 | significantly enhanced | significantly enhanced |
| C=CC(=O)Nc1cc(Nc2nccc(-c3cn(C)c4ccccc34)n2)c(OCC(F)(F)F)nc1N(C)CCN(C)C [Alflutinib] |  |  | poor condition |  |  |  |  |

Reference: patent US20260315467A1, “PHARMACEUTICAL COMBINATION OF FAK INHIBITOR AND EGFR-TKI, AND USE” (INXMED (NANJING) CO., LTD., priority 2022, published 2026)
